Data: US10406207B2, “Peptide conjugates of GLP-1 receptor agonists and gastrin and their use” (priority 2010, dated 2019)
Like-named read-outs stand apart in the source and are kept apart here. Square brackets hold non-standard residues; d marks the D form. Peptide text beside a SMILES is read from it. AEEA = NCCOCCOCC(=O)O

Biological target: T1, human CCK-B R (Homo sapiens, UniProt P32239)
T1 construct: expressed in transfected cells
T1 sequence (P32239 1-447): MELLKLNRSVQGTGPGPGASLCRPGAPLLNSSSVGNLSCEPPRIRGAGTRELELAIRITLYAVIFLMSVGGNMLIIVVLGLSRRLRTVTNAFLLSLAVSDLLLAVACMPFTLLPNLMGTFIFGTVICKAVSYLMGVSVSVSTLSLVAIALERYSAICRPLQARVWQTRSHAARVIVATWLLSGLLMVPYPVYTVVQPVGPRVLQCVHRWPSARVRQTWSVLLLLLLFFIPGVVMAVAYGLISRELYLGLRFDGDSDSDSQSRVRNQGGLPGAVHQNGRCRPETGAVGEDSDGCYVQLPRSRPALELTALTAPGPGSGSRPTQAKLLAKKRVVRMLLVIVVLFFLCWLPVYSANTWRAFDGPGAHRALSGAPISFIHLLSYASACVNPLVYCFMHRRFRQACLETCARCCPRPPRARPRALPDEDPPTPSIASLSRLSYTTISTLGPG
Test: Human CCK-B receptor efficacy assay (AlphaScreen SureFire p-ERK)
Format: cell-based
Conditions: read-out: hCCK-B R EC50

EC50 (Table 2) [nM]	EC50 (Table 3) [nM]	Compound
1200	–	CC[C@H](C)[C@H](NC(=O)[C@H](Cc1ccccc1)NC(=O)[C@H](CC(C)C)NC(=O)[C@H](CCCNC(=N)N)NC(=O)[C@@H](NC(=O)[C@H](C)NC(=O)[C@H](CCC(=O)O)NC(=O)[C@H](CCC(=O)O)NC(=O)[C@H](CCC(=O)O)NC(=O)[C@H](CC(C)C)NC(=O)[C@H](Cc1ccc(O)cc1)NC(=O)[C@H](CCCCN)NC(=O)[C@H](CO)NC(=O)[C@H](CC(C)C)NC(=O)[C@H](CC(=O)O)NC(=O)[C@H](CO)NC(=O)[C@@H](NC(=O)[C@H](Cc1ccccc1)NC(=O)[C@@H](NC(=O)CNC(=O)[C@H](CCC(=O)O)NC(=O)CNC(=O)[C@@H](N)Cc1c[nH]cn1)[C@@H](C)O)[C@@H](C)O)C(C)C)C(=O)N[C@@H](CCC(=O)O)C(=O)N[C@@H](Cc1ccccc1)C(=O)N[C@@H](CC(C)C)C(=O)N[C@@H](CCCCN)C(=O)NCCOCCOCC(=O)NCCOCCOCC(=O)N[C@@H](Cc1ccc(O)cc1)C(=O)NCC(=O)N[C@@H](Cc1ccccc1)C(=O)N[C@@H](CC(C)C)C(=O)N[C@@H](CC(=O)O)C(=O)N[C@@H](Cc1ccccc1)C(N)=O [Compound 89, [Leu14, Phe25,Tyr13]Exendin-4(1-27)-Peg3-Peg3-[Leu4, Phe3]Gastrin6] (H-HGEGTFTSDLSKYLEEEAVRLFIEFLK[AEEA][AEEA]YGFLDF-NH2)
–	18	CCCCCCCCCCCCCCCC(=O)N[C@@H](CCC(=O)NCCCC[C@H](NC(=O)[C@@H](NC(=O)[C@H](CC(C)C)NC(=O)[C@H](Cc1c[nH]c2ccccc12)NC(=O)[C@H](C)NC(=O)[C@@H](NC(=O)[C@H](Cc1ccccc1)NC(=O)[C@H](CCC(=O)O)NC(=O)[C@H](CCCCN)NC(=O)[C@H](C)NC(=O)[C@H](C)NC(=O)[C@H](CCC(N)=O)NC(=O)CNC(=O)[C@H](CCC(=O)O)NC(=O)[C@H](CC(C)C)NC(=O)[C@H](Cc1ccc(O)cc1)NC(=O)[C@H](CO)NC(=O)[C@H](CO)NC(=O)[C@@H](NC(=O)[C@H](CC(=O)O)NC(=O)[C@H](CO)NC(=O)[C@@H](NC(=O)[C@H](Cc1ccccc1)NC(=O)[C@@H](NC(=O)CNC(=O)[C@H](CCC(=O)O)NC(=O)[C@H](C)NC(=O)[C@@H](N)Cc1c[nH]cn1)[C@@H](C)O)[C@@H](C)O)C(C)C)[C@@H](C)CC)C(C)C)C(=O)NCC(=O)N[C@@H](CCCNC(=N)N)C(=O)NCC(=O)NCCOCCOCC(=O)NCCOCCOCC(=O)N[C@@H](Cc1ccc(O)cc1)C(=O)NCC(=O)N[C@@H](Cc1c[nH]c2ccccc12)C(=O)N[C@@H](CC(C)C)C(=O)N[C@@H](CC(=O)O)C(=O)N[C@@H](Cc1ccccc1)C(N)=O)C(=O)O [Compound 106, [Lys(Hexadecanoyl-isoGlu)34]GLP-1(7-37)-Peg3-Peg3-[Leu4]Gastrin6]
–	29	CCCCCCCCCCCCCCCC(=O)N[C@@H](CCC(=O)NCCCC[C@H](NC(=O)[C@H](C)NC(=O)[C@H](C)NC(=O)[C@H](CCC(N)=O)NC(=O)CNC(=O)[C@H](CCC(=O)O)NC(=O)[C@H](CC(C)C)NC(=O)[C@H](Cc1ccc(O)cc1)NC(=O)[C@H](CO)NC(=O)[C@H](CO)NC(=O)[C@@H](NC(=O)[C@H](CC(=O)O)NC(=O)[C@H](CO)NC(=O)[C@@H](NC(=O)[C@H](Cc1ccccc1)NC(=O)[C@@H](NC(=O)CNC(=O)[C@H](CCC(=O)O)NC(=O)[C@H](C)NC(=O)[C@@H](N)Cc1c[nH]cn1)[C@@H](C)O)[C@@H](C)O)C(C)C)C(=O)N[C@@H](CCC(=O)O)C(=O)N[C@@H](Cc1ccccc1)C(=O)N[C@H](C(=O)N[C@@H](C)C(=O)N[C@@H](Cc1c[nH]c2ccccc12)C(=O)N[C@@H](CC(C)C)C(=O)N[C@H](C(=O)N[C@@H](CCCNC(=N)N)C(=O)NCC(=O)N[C@@H](CCCNC(=N)N)C(=O)NCC(=O)NCCOCCOCC(=O)NCCOCCOCC(=O)N[C@@H](Cc1ccc(O)cc1)C(=O)NCC(=O)N[C@@H](Cc1c[nH]c2ccccc12)C(=O)N[C@@H](CC(C)C)C(=O)N[C@@H](CC(=O)O)C(=O)N[C@@H](Cc1ccccc1)C(N)=O)C(C)C)[C@@H](C)CC)C(=O)O [Compound 107, [Arg34,Lys(Hexadecanoyl-isoGlu)26]GLP-1(7-37)-Peg3-Peg3-[Leu4]Gastrin6]
